Test results as given in patent US9061010B2, “Methods of treating a Flaviviridae family viral infection and compositions for treating a Flaviviridae family viral infection” (The Board of Trustees of the Leland Stanford Junior …, priority 2007, dated 2015).
“Also recorded” adds a separate entry of the source.

Key:
HCV (genotype 4) = experiment: Treatment of patients chronically infected with HCV, serum HCV viral load; type: in vivo, human
Procedure: Three patients chronically-infected with HCV (genotype 4) were treated in accordance with an embodiment of the method of the invention. All were male and had baseline ALT elevations and significant HCV viral loads ranging from 290,000-730,000 IU/ml.
After the first four weeks of clemizole monotherapy, pegylated interferon (180 micrograms Pegasus (Roche) s.q. per week) was added.

[1] = cited from earlier work
[2] = tested on: HCV RNA replication (full-length luciferase reporter-linked HCV genome); experiment: Luciferase reporter-linked HCV replication assay in Huh7.5 cells; type: cell-based, Hepatitis C Virus; settings: for percent of normal HCV RNA replication remaining at 5 µM / percent of normal HCV RNA replication remaining at 10 µM: Hepatitis C virus, Huh7.5, read-out: AV, percent of normal HCV RNA replication remaining
Procedure: For example, HCV replication assays employing a luciferase reporter-linked HCV genome in the presence of various combinations of clemizole and an NS3 protease inhibitor (SCH503034) are shown in FIGS. 1A and 1B. In such assays, luciferase activity is directly proportional to HCV RNA genome replication. […] The results can be plotted on a linear or log scale as a function of drug concentrations to generate replication inhibition curves.
Luciferase assays were performed at 72 hr.
(§1) Medium was changed daily.
The experiment was repeated four times, each time with triplicates.

W55R mutant J6/JFH RNA = experiment: Luciferase reporter-linked replication assay, W55R mutant; type: cell-based, Hepatitis C Virus; settings: 10 μM clemizole; whole cell RNA or in vitro-transcribed RNA
Source text: Two of the clemizole-resistant NS4B mutants were characterized in detail. The first, W55R is depicted in FIG. 9a. It involves the substitution of an arginine for the tryptophan at amino acid 55 within a predicted cytoplasmically-oriented segment of NS4B. This mutation is sufficient to confer a clemizole-resistant phenotype in cells: Huh7.5 cells transfected with either whole cell RNA extracted from the W55R mutant cells (FIG. 9b) or with in vitro-transcribed J6/JFH RNA encoding this point mutation and a linked luciferase reporter gene (FIG. 9c) were unaffected by 10 μM clemizole.
The plasmid FL-J6/JFH-5′C19Rluc2AUbi that consists of the full-length HCV genome and expresses Renilla luciferase was a gift from Dr. Charles M. Rice^28. The W55R mutation was introduced into this plasmid by site-directed mutagenesis (using the QuikChange kit (Stratagene)).
as §1
Whole cell RNA was extracted from clemizole-resistant replicon clones and from untreated replicon cells using TRIzol reagent (Invitrogen). Equal amounts of whole cell RNA (50 μg) were electroporated into Huh7.5 cells as described above. Cells were grown under G418 selection in the presence or absence of clemizole for 3 weeks. The number of colonies was determined using Image J (NIH) following fixation and staining with Crystal violet.

[3] = molecular target: T1, W55R NS4B mutant binding to HCV RNA (Hepatitis C virus genotype 1a, UniProt P27958, A1893V/D1840G/F1898S/L1839I/R1905H/S1900A/W1766R); experiment: Microfluidic in vitro RNA binding assay, W55R NS4B mutant; settings: 10 nM clemizole
T1 construct: made in house; host or cells: coupled transcription/translation rabbit reticulocyte system (Promega) with canine microsomal membranes
Source text: This mutation was also introduced into the NS4B-GFP vector and the resulting vector tested for its RNA binding activity using the in vitro microfluidic assay of the invention.
The plasmid pcDNA-NS4B-GFP encoding NS4B of genotype 1a fused in frame with a C-terminal GFP was previously described^5. The mutations RRa, RRb and W55R were introduced into this plasmid by site-directed mutagenesis (using the QuikChange kit (Stratagene)). The plasmid NS5A(AH)GFP was constructed as previously reported. Gus-his vector was obtained from Roche.

[4] = cited from earlier work; remark: listed apart in the source
HuR protein = molecular target: T2, HuR protein (Homo sapiens, UniProt Q15717); experiment: Microfluidic RNA binding assay of HuR (specificity of hits); settings: 0.1 mM
T2 construct: made in house; […]
Source text: For each experiment, an image was taken after MITOMI and the final PBS wash. This was used to determine the concentration of surface bound protein (FITC channel) as well as surface bound target RNA (Cy3 channel). […] Data from multiple data points were averaged, and their standard deviations calculated. Results were then normalized to 1. Between 10-20 replicates were included for each probe tested. A control protein, Gus-his (Roche) was included in each experiment and subjected to the same analysis. When present, detected signal with Gus-his was used for background subtraction.
Specificity of hits identified in the small molecule screen: To determine the specificity of the hits identified in the small molecule screen, the HuR protein (one of the human RNA binding protein used to validate our RNA binding assay) was selected. […] Binding of HuR to the consensus 4A RNA sequence was tested in the presence of the inhibitory molecules shown to inhibit RNA binding by NS4B. […] Similarly, 0.1 mM of the identified compounds didn't have an inhibitory effect on binding of HuR to the 3′ terminus of the negative HCV RNA strand.

[5] = molecular target: HCV NS4B binding to the 3′ terminus of the HCV negative strand RNA (Hepatitis C virus genotype 1a, UniProt P27958); experiment: Microfluidic (MITOMI) in vitro RNA binding assay of NS4B; settings: 10 nM clemizole
Huh7.5 cells = experiment: Alamar Blue viability assay
Procedure: (§2) Huh-7.5 cells were maintained in Dulbecco's modified minimal essential medium (Gibco) supplemented with 1% L-glutamine (Gibco), 1% penicillin, 1% streptomycin (Gibco), 1× nonessential amino acids (Gibco) and 10% fetal bovine serum (Omega Scientific). Cell lines were passaged twice weekly after treatment with 0.05% trypsin-0.02% EDTA and seeding at a dilution of 1:5. Subconfluent Huh-7.5 cells were trypsinized and collected by centrifugation at 700 g for 5 min. The cells were then washed three times in ice-cold RNase-free PBS (BioWhittaker) and resuspended at 1.5*10^7 cells/ml in PBS. Wild type or mutant FL-J6/JFH-5′C19Rluc2AUbi RNA for electroporation was generated by in vitro transcription of XbaI-linearized DNA templates using the T7 MEGAscript kit (Ambion), followed by purification, essentially as described above (In vitro RNA transcription and fluorescent labeling). 5 μg of RNA was mixed with 400 μl of washed Huh-7.5 cells in a 2 mm-gap cuvette (BTX) and immediately pulsed (0.82 kV, five 99 μs pulses) with a BTX-830 electroporator. After a 10 min recovery at 25° C., pulsed cells were diluted into 10 ml of prewarmed growth medium. Cells from several electroporations were pooled to a common a stock and seeded in 6 well plates (5*10^5 cells per well). After 24 hr, medium was replaced and cells were grown in the presence of serial dilutions of the various inhibitory compounds (Sigma) identified in the screen. […] Untreated cells were used as a negative control for water soluble compounds. For compounds solubilized in DMSO, untreated cells were grown in the presence of corresponding concentrations of the solvent as a negative control. Medium was changed daily. After 72 hr of treatment, cells were subjected to an alamar blue based viability assay and luciferase assay.
(§3) Following 72 hrs of treatment, cells were incubated for 3 hrs at 37° C. in the presence of 10% Alamar Blue reagent (TREK Diagnostic Systems).

[6] = Alamar Blue viability assay; settings: human
Procedure: as §2, §3

Molecule | AV score ([2]; 5 uM) | AV score ([2]; 10 uM) | percent of normal HCV RNA replication remaining at 5 µM ([2]; 5 uM) | percent of normal HCV RNA replication remaining at 10 µM ([2]; 10 uM) | further results
Clc1ccc(Cn2c(CN3CCCC3)nc3ccccc32)cc1 [clemizole] | – | – | – | – | HCV viral load after clemizole monotherapy (HCV (genotype 4); 100 mg po BID, week 4, 3 patients): nearly at or below the limit of HCV detection; also recorded: completely, or nearly, undetectable; HCV viral load after clemizole monotherapy plus clemizole with pegylated interferon (HCV (genotype 4); 4 weeks monotherapy plus 4 weeks clemizole-standard dose pegylated interferon): below the limit of detection; patients reporting excellent relief of itching ([1]; 40 to 160 mg/day): 66%; patients reporting good relief of itching ([1]; 40 to 160 mg/day): 23%; patients with mild side effects ([1]; drowsiness most common): 4 patients; difference between IC50 for in vitro RNA binding and EC50 for antiviral effect in cells [2]: ~400 fold; effect of adding clemizole to SCH503034 on inhibition of HCV replication ([2]; SCH503034 1-5 micromolar, 72 hours, FIGS. 1A and 1B): increase the inhibition of HCV replication in a dose-dependent manner by up to several logs; replication of W55R mutant in presence of clemizole (W55R mutant J6/JFH RNA): unaffected; reduction of RNA binding, W55R mutant NS4B [3]: ~2 fold; drowsiness, share of patients treated ([4]; Zierz and Greither): 1.3%; patients with drowsiness ([4]; human, in vivo): 2 of the 104 patients; subjects who responded to treatment ([4]; various dosage forms): 92 of the 104 subjects; inhibitory effect on binding of HuR to the consensus 4A RNA sequence (HuR protein): No inhibitory effect; reduction of RNA binding, wild type NS4B [5]: ~2 fold; toxicity to the cell in the real-time PCR experiment (Huh7.5 cells; HCV-infected Huh7.5 cells, 72 hours, FIG. 15): no measurable toxicity to the cell
Interferon alpha B2 | – | – | – | – | reduction of luciferase activity (positive control) ([2]; 100 u/ml, 72 hr treatment): three log reduction
COC(=O)c1ccc(Cn2cnc3ccccc32)cc1 | + (60-90% residual activity) | ++ (30-60% residual activity) | 74% | 54% | –
Cc1cc2ncn(Cc3ccc(Cl)cc3Cl)c2cc1C | +++ (0-30% residual activity) | +++ (0-30% residual activity) | 30% | 8% | –
O=C(O)C1=CC(=C(c2ccc(O)c(C(=O)O)c2)c2ccc(O)c(C(=O)O)c2)C=CC1=O [ATA, Aurintricarboxilic acid] | – | – | – | – | inhibitory effect on binding of HuR to the 3′ terminus of the negative HCV RNA strand (HuR protein): significantly inhibited; inhibitory effect on binding of HuR to the consensus 4A RNA sequence (HuR protein): significantly inhibited
COc1ccc(Cn2cnc3ccccc32)cc1 | + (60-90% residual activity) | ++ (30-60% residual activity) | 70% | 58% | –
Clc1ccc(Cn2c(CN3CCCC3)nc3ccccc32)cc1 [drawing 374] | + (60-90% residual activity) | ++ (30-60% residual activity) | 62% | 37% | viability at 72 h, 5 µM [6]: 90 to 100%; viability at 72 h, 10 µM [6]: 90 to 100%; Viab, percent of normal cell viability remaining (Huh7.5 cells; 5 uM): 107%; Viab, percent of normal cell viability remaining (Huh7.5 cells; 10 uM): 93%
Cc1nc2ccccc2n1Cc1ccc(Br)cc1 | +++ (0-30% residual activity) | +++ (0-30% residual activity) | 3% | 2% | –
CC(C)(C)c1ccc(Cn2cnc3ccccc32)cc1 | +++ (0-30% residual activity) | +++ (0-30% residual activity) | 30% | 12% | –
Cc1nc2cc(Cl)ccc2n1Cc1ccccc1 | + (60-90% residual activity) | + (60-90% residual activity) | 87% | 60% | –
Brc1ccc(Cn2cnc3ccccc32)cc1 | +++ (0-30% residual activity) | +++ (0-30% residual activity) | 23% | 8% | –
Cl.Clc1ccc(Cn2c(CN3CCCC3)nc3ccccc32)cc1 [Clemizole hydrochloride, 1-p-Chlorobenzyl-2-(1-pyrrolidinyl)methylbenzimidazole hydrochloride, reference compound] | – | – | – | – | time to relief of itching ([1]; human, in vivo): 24 to 48 h; decrease in viral replication ([2]; 20 μM, luciferase at 72 hr): tenfold decrease; cellular toxicity (Huh7.5 cells; at concentrations up to 20 μM, 72 hr, Alamar Blue): no measurable cellular toxicity
Cc1ccc(Cn2cnc3ccccc32)cc1 | ++ (30-60% residual activity) | +++ (0-30% residual activity) | 49% | 23% | –
OCc1nc2ccccc2n1Cc1ccc(Br)cc1 | ++ (30-60% residual activity) | +++ (0-30% residual activity) | 50% | 28% | –
